The values below come from patent US11932654B2, “Nimbolide analogs as anti-cancer agents and preparation thereof” (priority 2018, dated 2024).

One may read the IC50 as the concentration that gives 50% inhibition. The low end stands for greater potency, the high end for weaker potency.

Common to all, as to type: cell-based
The subject of assay [1] is PC3 prostate cancer cell line. Description: In vitro anticancer activity, SRB assay, PC3. The conditions noted are these: 48 h, NA = Not Active. As for the experimental part:
(§1) Cell culture: Human lung adenocarcinoma cell line (A549 cell line), pancreatic cancer cell line (Panc-1, Pan-02), prostate cancer cell line (DU145, PC3), Brest cancer cell line (MCF-7) was grown in DIEM (Dulbecco's modifications of eagle's medium with L-glutamine & 4.5 g/L glucose) supplemented with fetal bovine serum in a humidified atmosphere of a 5% CO2 at 37° C.
(§2) In vitro anticancer activity: Cells were harvested from exponential phase cultures by trypsinization, counted and plated in 96-well plate. Optimal seeding densities for different cell lines in each plate were 5000 cells per well. After 24 h cells were treated with \ the newly synthesized compound at a dose range of 0.1-100 μm final concentration. Thereafter, cells were allowed to grow for 48 h before determination of cell survival by the SRB assay. Then the cells were fixed with 10% cold trichloroacetic acid for 1 h at 4° C. After two washes with deionized water, fixed cells were stained with 50 μL of SRB solution (1% in acetic acid) for 30 min and subsequently washed twice with 1% acetic acid to remove unbound stain. The plates were left to dry at room temperature and bound stain was solubilized with 100 μL of 10 mM buffered Tris base for reading the […] at 540 nm.
(In general: The SRB assay estimates cell density from bound dye.)

Assay [2] concerns A549 lung adenocarcinoma cell line. Description: In vitro anticancer activity, SRB assay, A549. The conditions noted are these: Homo sapiens, 48 h, NA = Not Active. The method, then:
as §1, §2

Assay [3] relates to Panc-1 pancreatic cancer cell line. Description: In vitro anticancer activity, SRB assay, Panc-1. Particulars: Homo sapiens, 48 h, NA = Not Active. The method, then:
as §1, §2

Assay [4] concerns MCF-7 breast cancer cell line. In words: In vitro anticancer activity, SRB assay, MCF-7. The conditions noted are these: Homo sapiens, MCF7, 48 h, NA = Not Active. The method, then: as §1, §2
In assay [5] the test system is DU-145 prostate cancer cell line. Description: In vitro anticancer activity, SRB assay, DU-145. The conditions noted are these: Homo sapiens, 48 h, NA = Not Active. As for the experimental part:
as §1, §2

As for `COC(=O)C[C@H]1[C@]2(C)C3=C(C)[C@H](c4ccoc4)C[C@@H]3O[C@@H]2[C@@H]2OC(=O)[C@]3(C)C(Nc4ccccc4)CC(=O)[C@@]1(C)C23` (stereo partly shown) [A8], the IC50 in assay [1] worked out at 21 µM; in assay [2], 89.4 µM; in assay [3], 85.5 µM; in assay [4], 56.6 µM.

In the case of `COC(=O)C[C@H]1[C@]2(C)C3=C(C)[C@H](c4ccoc4)C[C@@H]3O[C@@H]2[C@@H]2OC(=O)[C@]3(C)C(OCc4ccccc4)CC(=O)[C@@]1(C)C23` (stereo partly shown) [A2], the IC50 in assay [1] came out at 1.01 µM; in assay [2], 13.1 µM; in assay [5], 1.45 µM; in assay [3], 8.78 µM; in assay [4], 4.72 µM.

As to `COC(=O)C[C@H]1[C@]2(C)C3=C(C)[C@H](c4ccoc4)C[C@@H]3O[C@@H]2[C@@H]2OC(=O)[C@]3(C)C(C(O)c4ccc([N+](=O)[O-])cc4)=CC(=O)[C@@]1(C)C23` (stereo partly shown) [A3], the IC50 in assay [1] was found to be 9.08 µM; in assay [2], 12.2 µM; in assay [5], 9.31 µM; in assay [3], 7.79 µM; in assay [4], 4.74 µM.

As for `COC(=O)C[C@H]1[C@]2(C)C3=C(C)[C@H](c4ccoc4)C[C@@H]3O[C@@H]2[C@@H]2OC(=O)[C@]3(C)CCC(=O)[C@@]1(C)C23` (stereo partly shown) [A6], the IC50 in assay [1] was determined as 79.1 µM; in assay [2], 67.2 µM; in assay [5], 75.1 µM; in assay [3], 32.9 µM; in assay [4], 32.5 µM.

Turning to `COC(=O)C[C@H]1[C@]2(C)C3=C(C)[C@H](c4ccoc4)C[C@@H]3O[C@@H]2[C@@H]2OC(=O)[C@]3(C)C(Sc4cccc(N)c4)CC(=O)[C@@]1(C)C23` (stereo partly shown) [A7], the IC50 amounted to 65.3 µM in assay [1], 23.9 µM in assay [2], 18.6 µM in assay [3] and 52.2 µM in assay [4].

Turning to `COC(=O)C[C@H]1[C@]2(C)C3=C(C)[C@H](c4ccoc4)C[C@@H]3O[C@@H]2[C@@H]2OC(=O)[C@]3(C)C4CC4C(=O)[C@@]1(C)C23` (stereo partly shown) [A5], the 50% inhibitory concentration (IC50) is 20.6 µM in assay [1]; 60.8 µM in assay [2]; 7.91 µM in assay [5]; 1.04 µM in assay [3]; 17.1 µM in assay [4].
